This assay relates to G190A HIV-1 RT DNA-dependent DNA polymerase activity. The experiment in a line: biochemical. The class given is biochemical. As to conditions: G190A RT; fold resistance IC50 mutant/IC50 WT. How it is done: WT (wild-type) RT, and RTs harboring the NNRTI-resistant mutations K101E, K103N, Y181C, Y188C, G190A and P236L, were overexpressed and purified to homogeneity as described previously. The RT concentration was determined spectrophotometrically at 280 nm using an absorbance coefficient of 260,450 M^−1·cm^−1. The 7-hydroxy tropolone derivative 19,616 (2,7-dihydroxy 2,4,6-cyclo-heptatrien-1-one) was purchased from Molecular Diversity Preservation International (Basel, Switzerland). […] The benzisothiazolone derivatives were procured from MolPort (New York, NY, USA) or Enamine (Kyiv, Ukraine). The DNA and RNA oligonucleotides were synthesized and purified by Integrated DNA Technologies (Coralville, IA, USA). All other reagents were of the highest quality available and were used without further purification.
DDDP assays were also performed using a QuantiFluor ONE based spectrophotometric assay to detect double-stranded DNA synthesized by recombinant HIV-1 RT [14]. The reaction contained 40 nM of a template/primer comprising a 200 nt DNA template (5′-[…] […]-[…]-[…] […] […]-3′) annealed to an 18-nucleotide DNA primer (5′-[…]-3′), and a mix of 50 mM Tris-HCl pH 7.8, 50 mM NaCl, 10 mM MgCl2 and 50 µM dNTP. The reactions were stopped after 45 min by adding the detection reagent containing 1 × Quant-Fluor One (Promega) and 12.5 mM ethylenediaminetet-raacetic acid; the samples were transferred to a 96-well black plate, and fluorescence was measured at excitation/emission (490/535 nm).

As for `CCN(CC)S(=O)(=O)c1cccc(-n2sc3ccccc3c2=O)c1` [Compound 4, N,N-diethyl-3-(3-oxobenzo[d]isothiazol-2(3H)-yl)benzenesulfonamide], the “Inhibition of RT DNA polymerase activity Fold-R” value was found to be 1.5.

With `CCOC(=O)Cc1csc(-n2sc3ccccc3c2=O)n1` [Compound 2, ethyl 2-(2-(3-oxobenzo[d]isothiazol-2(3H)-yl)thiazol-4-yl)acetate], the “Inhibition of RT DNA polymerase activity Fold-R” value is 0.7.

(Values after PMC11274943, “Discovery of Benzisothiazolone Derivatives as Bifunctional Inhibitors of HIV-1 Reverse Transcriptase DNA Polymerase and Ribonuclease H Activities” (Biomolecules, 2024).)
